ChEMBL document CHEMBL2073842, “Characterization of the efflux transport of 17beta-estradiol-D-17beta-glucuronide from the brain across the blood-brain barrier” (J Pharmacol Exp Ther, 2001)

Key:
[1] = biological target: T1, Solute carrier organic anion transporter family member 1A1 (Rattus norvegicus, UniProt P46720); assay: TP_TRANSPORTER: inhibition of E217betaG uptake in Oatp1-expressing LLC-PK1 cells; type: functional, cell-based
T1 sequence (P46720 whole entry): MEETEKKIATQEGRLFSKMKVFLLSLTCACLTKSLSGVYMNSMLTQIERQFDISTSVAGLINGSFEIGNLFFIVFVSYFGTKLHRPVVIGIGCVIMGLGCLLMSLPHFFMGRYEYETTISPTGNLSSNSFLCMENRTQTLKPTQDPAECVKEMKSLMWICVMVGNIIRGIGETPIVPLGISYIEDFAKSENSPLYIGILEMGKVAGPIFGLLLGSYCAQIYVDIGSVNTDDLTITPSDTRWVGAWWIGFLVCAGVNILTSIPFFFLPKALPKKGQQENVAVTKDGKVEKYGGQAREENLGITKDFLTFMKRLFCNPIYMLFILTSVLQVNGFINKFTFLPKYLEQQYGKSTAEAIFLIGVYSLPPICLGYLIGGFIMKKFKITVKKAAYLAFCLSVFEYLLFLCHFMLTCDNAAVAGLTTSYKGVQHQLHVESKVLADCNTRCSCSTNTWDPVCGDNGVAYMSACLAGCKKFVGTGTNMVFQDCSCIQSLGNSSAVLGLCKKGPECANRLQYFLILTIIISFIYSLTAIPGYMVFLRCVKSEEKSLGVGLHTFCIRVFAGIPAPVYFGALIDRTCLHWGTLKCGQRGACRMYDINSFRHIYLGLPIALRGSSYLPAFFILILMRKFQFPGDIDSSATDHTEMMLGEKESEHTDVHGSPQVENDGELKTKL

[2] = biological target: T2, Organic anion transporter 3 (Rattus norvegicus, UniProt Q9R1U7); assay: TP_TRANSPORTER: inhibition of E217betaG uptake in Oat3-expressing LLC-PK1 cells; type: functional, cell-based
T2 sequence (Q9R1U7 whole entry): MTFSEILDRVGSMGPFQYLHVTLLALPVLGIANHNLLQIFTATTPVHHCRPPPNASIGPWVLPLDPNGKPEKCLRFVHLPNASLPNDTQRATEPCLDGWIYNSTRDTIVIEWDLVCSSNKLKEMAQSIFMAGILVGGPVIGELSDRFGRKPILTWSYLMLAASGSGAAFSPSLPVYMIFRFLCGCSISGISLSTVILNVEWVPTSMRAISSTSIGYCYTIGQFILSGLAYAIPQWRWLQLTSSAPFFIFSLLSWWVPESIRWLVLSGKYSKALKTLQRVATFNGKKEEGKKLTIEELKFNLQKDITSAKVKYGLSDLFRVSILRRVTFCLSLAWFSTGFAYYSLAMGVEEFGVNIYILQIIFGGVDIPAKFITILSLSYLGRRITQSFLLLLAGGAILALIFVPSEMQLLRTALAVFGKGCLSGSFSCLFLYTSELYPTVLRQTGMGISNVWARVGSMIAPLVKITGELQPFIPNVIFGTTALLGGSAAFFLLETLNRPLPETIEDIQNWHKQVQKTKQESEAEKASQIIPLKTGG

[3] = biological target: T3, Solute carrier organic anion transporter family member 1A4 (Rattus norvegicus, UniProt O35913); assay: TP_TRANSPORTER: inhibition of E217betaG uptake in Oatp2-expressing LLC-PK1 cells; type: functional, cell-based
T3 sequence (O35913 whole entry): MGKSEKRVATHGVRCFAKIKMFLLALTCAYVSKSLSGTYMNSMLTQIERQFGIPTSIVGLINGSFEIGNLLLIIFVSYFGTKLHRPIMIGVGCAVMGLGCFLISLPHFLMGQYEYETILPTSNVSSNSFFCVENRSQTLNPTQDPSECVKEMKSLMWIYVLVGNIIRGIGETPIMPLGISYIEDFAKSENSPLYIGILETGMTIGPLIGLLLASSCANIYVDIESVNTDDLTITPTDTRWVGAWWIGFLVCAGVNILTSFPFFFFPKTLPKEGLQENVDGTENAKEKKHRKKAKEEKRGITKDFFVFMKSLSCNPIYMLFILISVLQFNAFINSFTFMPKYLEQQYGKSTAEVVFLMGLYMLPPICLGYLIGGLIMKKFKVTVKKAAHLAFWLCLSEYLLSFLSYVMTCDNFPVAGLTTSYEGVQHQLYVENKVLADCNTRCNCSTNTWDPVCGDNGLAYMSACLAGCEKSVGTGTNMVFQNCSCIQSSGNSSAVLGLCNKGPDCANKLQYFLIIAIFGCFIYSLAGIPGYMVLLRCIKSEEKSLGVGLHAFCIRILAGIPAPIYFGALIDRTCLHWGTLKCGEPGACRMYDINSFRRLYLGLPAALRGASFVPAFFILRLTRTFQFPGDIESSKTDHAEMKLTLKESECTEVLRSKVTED

[4] = substrate: C[C@]12CC[C@@H]3c4ccc(O)cc4CC[C@H]3[C@@H]1CC[C@@H]2O[C@@H]1O[C@H](C(=O)O)[C@@H](O)[C@H](O)[C@H]1O; assay: TP_TRANSPORTER: uptake in Oatp1-expressing LLC-PK1 cells; type: functional, cell-based
[5] = substrate: Nc1ccc(C(=O)NCC(=O)O)cc1; assay: cells, lysate or membranes named
[6] = substrate: C[C@]12CC[C@@H]3c4ccc(O)cc4CC[C@H]3[C@@H]1CC[C@@H]2O[C@@H]1O[C@H](C(=O)O)[C@@H](O)[C@H](O)[C@H]1O; assay: TP_TRANSPORTER: uptake in Oatp2-expressing LLC-PK1 cells; type: functional, cell-based

CCCN(CCC)S(=O)(=O)c1ccc(C(=O)O)cc1 [PROBENECID]
Ki [1]: 74.4 µM | Ki [2]: 20 µM | Ki [3]: 72.9 µM

Nc1ccc(C(=O)NCC(=O)O)cc1 [AMINOHIPPURIC ACID]
Ki [2]: 301 µM

B1: Solute carrier organic anion transporter family member 1A1 (Rattus norvegicus) (protein)
chain: MEETEKKIATQEGRLFSKMKVFLLSLTCACLTKSLSGVYMNSMLTQIERQFDISTSVAGLINGSFEIGNLFFIVFVSYFGTKLHRPVVIGIGCVIMGLGCLLMSLPHFFMGRYEYETTISPTGNLSSNSFLCMENRTQTLKPTQDPAECVKEMKSLMWICVMVGNIIRGIGETPIVPLGISYIEDFAKSENSPLYIGILEMGKVAGPIFGLLLGSYCAQIYVDIGSVNTDDLTITPSDTRWVGAWWIGFLVCAGVNILTSIPFFFLPKALPKKGQQENVAVTKDGKVEKYGGQAREENLGITKDFLTFMKRLFCNPIYMLFILTSVLQVNGFINKFTFLPKYLEQQYGKSTAEAIFLIGVYSLPPICLGYLIGGFIMKKFKITVKKAAYLAFCLSVFEYLLFLCHFMLTCDNAAVAGLTTSYKGVQHQLHVESKVLADCNTRCSCSTNTWDPVCGDNGVAYMSACLAGCKKFVGTGTNMVFQDCSCIQSLGNSSAVLGLCKKGPECANRLQYFLILTIIISFIYSLTAIPGYMVFLRCVKSEEKSLGVGLHTFCIRVFAGIPAPVYFGALIDRTCLHWGTLKCGQRGACRMYDINSFRHIYLGLPIALRGSSYLPAFFILILMRKFQFPGDIDSSATDHTEMMLGEKESEHTDVHGSPQVENDGELKTKL
Km [4]: 2.58 µM

B2: Solute carrier family 22 member 6 (Rattus norvegicus) (protein)
chain: MAFNDLLKQVGGVGRFQLIQVTMVVAPLLLMASHNTLQNFTAAIPPHHCRPPANANLSKDGGLEAWLPLDKQGQPESCLRFTSPQWGPPFYNGTEANGTRVTEPCIDGWVYDNSTFPSTIVTEWNLVCSHRAFRQLAQSLYMVGVLLGAMVFGYLADRLGRRKVLILNYLQTAVSGTCAAYAPNYTVYCVFRLLSGMSLASIAINCMTLNVEWMPIHTRAYVGTLIGYVYSLGQFLLAGIAYAVPHWRHLQLVVSVPFFIAFIYSWFFIESARWYSSSGRLDLTLRALQRVARINGKQEEGAKLSIEVLRTSLQKELTLSKGQASAMELLRCPTLRHLFLCLSMLWFATSFAYYGLVMDLQGFGVSMYLIQVIFGAVDLPAKFVCFLVINSMGRRPAQMASLLLAGICILVNGIIPKSHTIIRTSLAVLGKGCLASSFNCIFLYTGELYPTVIRQTGLGMGSTMARVGSIVSPLVSMTAEFYPSMPLFIFGAVPVVASAVTALLPETLGQPLPDTVQDLKSRSRGKQNQQQQEQQKQMMPLQASTQEKNGL
Km [5]: 85.1 µM

B3: Solute carrier organic anion transporter family member 1A4 (Rattus norvegicus) (protein)
chain: MGKSEKRVATHGVRCFAKIKMFLLALTCAYVSKSLSGTYMNSMLTQIERQFGIPTSIVGLINGSFEIGNLLLIIFVSYFGTKLHRPIMIGVGCAVMGLGCFLISLPHFLMGQYEYETILPTSNVSSNSFFCVENRSQTLNPTQDPSECVKEMKSLMWIYVLVGNIIRGIGETPIMPLGISYIEDFAKSENSPLYIGILETGMTIGPLIGLLLASSCANIYVDIESVNTDDLTITPTDTRWVGAWWIGFLVCAGVNILTSFPFFFFPKTLPKEGLQENVDGTENAKEKKHRKKAKEEKRGITKDFFVFMKSLSCNPIYMLFILISVLQFNAFINSFTFMPKYLEQQYGKSTAEVVFLMGLYMLPPICLGYLIGGLIMKKFKVTVKKAAHLAFWLCLSEYLLSFLSYVMTCDNFPVAGLTTSYEGVQHQLYVENKVLADCNTRCNCSTNTWDPVCGDNGLAYMSACLAGCEKSVGTGTNMVFQNCSCIQSSGNSSAVLGLCNKGPDCANKLQYFLIIAIFGCFIYSLAGIPGYMVLLRCIKSEEKSLGVGLHAFCIRILAGIPAPIYFGALIDRTCLHWGTLKCGEPGACRMYDINSFRRLYLGLPAALRGASFVPAFFILRLTRTFQFPGDIESSKTDHAEMKLTLKESECTEVLRSKVTED
Km [6]: 17 µM
